Laboratory results from patent US20230167127A1, “COMPOUNDS AND THEIR USE IN THE TREATMENT OF BACTERIAL INFECTION” (Hoffmann-La Roche Inc., priority 2020, published 2023).
Where two headings read alike, the source gives them in different places.

Test system: Escherichia coli ATCC 25922
Test: 50% growth inhibitory concentration (IC50) determination, Iso-Sensitest broth dilution
Assay type: cell-based
Conditions: strain Escherichia coli ATCC 25922, 10-point broth dilution, optical density at 600 nm over 16 h, read-out: Escherichia coli growth inhibition IC50
Method in brief: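 Growth was tracked as optical density at 600 nm every 20 minutes for 16 h at 35±2° C. Compounds from DMSO stocks were serially diluted twofold over 10 points (e.g. 50–0.097 μM final) in Iso-Sensitest broth. Inhibition computed in log-phase growth to give IC50.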

[1] = Escherichia coli, ATCC25922, 16 h

SMILES	IC50 [1] [nM]	IC50 [nM]
CNC(=O)COc1cc(Cl)c2c(c1)C(N)C(CNCCC1CN(c3ccc4c(n3)NC(=O)CO4)C(=O)O1)C2 (racemic) [Example 400, N-methyl-2-[[rac-2,3-trans-3-amino-7-chloro-2-[[2-[2-oxo-3-(3-oxo-4H-pyrido[3,2-b][1,4]oxazin-6-yl)-1,3-oxazolidin-5-yl]ethylamino]methyl]-2,3-dihydro-1H-inden-5-yl]oxy]acetamide; formic acid]	365	–
Cc1noc(COc2cc(C#N)c3c(c2)CC(CNCCC2CN(c4cnc5c(n4)NC(=O)CO5)C(=O)O2)C3)n1 (centres unmarked) [Example 387, 6-[(3-methyl-1,2,4-oxadiazol-5-yl)methoxy]-2-[[2-[2-oxo-3-(3-oxo-4H-pyrazino[2,3-b][1,4]oxazin-6-yl)-1,3-oxazolidin-5-yl]ethylamino]methyl]-2,3-dihydro-1H-indene-4-carbonitrile]	< 97.7	–
Cc1ncc(F)c2c1CC(NCCCC1CN(c3cnc4c(n3)NC(=O)CO4)C(=O)O1)C2 (centres unmarked) [Example 79, 6-[5-[3-[(4-fluoro-1-methyl-6,7-dihydro-5H-cyclopenta[c]pyridin-6-yl)amino]propyl]-2-oxo-1,3-oxazolidin-3-yl]-4H-pyrazino[2,3-b][1,4]oxazin-3-one]	< 97.7	–
N#Cc1cccc2c1CC(CN1CCC3(CN(c4ccc5c(n4)NC(=O)CO5)C(=O)O3)C(CN)C1)C2 (racemic) [Example 249, 2-[[rac-5,6-trans-6-(Aminomethyl)-2-oxo-3-(3-oxo-4H-pyrido[3,2-b][1,4]oxazin-6-yl)-1-oxa-3,8-diazaspiro[4.5]decan-8-yl]methyl]-2,3-dihydro-1H-indene-4-carbonitrile; formic acid]	108	–
CNC(=O)COc1nc(C#N)c2c(c1C)CC(CNCCC1CN(c3ccc4c(n3)NC(=O)CO4)C(=O)O1)C2 (centres unmarked) [Example 221, 2-((1-Cyano-4-methyl-6-(((2-(2-oxo-3-(3-oxo-3,4-dihydro-2H-pyrido[3,2-b][1,4]oxazin-6-yl)oxazolidin-5-yl)ethyl)amino)methyl)-6,7-dihydro-5H-cyclopenta[c]pyridin-3-yl)oxy)-N-methylacetamide]	302	–
CN(C)CCOc1cc(F)c2c(c1)CC(CNCCC1CN(c3cnc4c(n3)NC(=O)CO4)C(=O)O1)C2 (centres unmarked) [Example 272, 6-[5-[2-[[6-[2-(Dimethylamino)ethoxy]-4-fluoro-2,3-dihydro-H-inden-2-yl]methylamino]ethyl]-2-oxo-1,3-oxazolidin-3-yl]-4H-pyrazino[2,3-b][1,4]oxazin-3-one; formic acid]	< 97.7	–
Cc1nc(OCC2COCCN2)c(C)c2c1CC(CNCCC1CN(c3ccc4c(n3)NC(=O)CO4)C(=O)O1)C2 (centres unmarked) [Example 199, 6-[5-[2-[[1,4-dimethyl-3-(morpholin-3-ylmethoxy)-6,7-dihydro-5H-cyclopenta[c]pyridin-6-yl]methylamino]ethyl]-2-oxo-1,3-oxazolidin-3-yl]-4H-pyrido[3,2-b][1,4]oxazin-3-one]	88.4	–
NC1c2cc(OCC3(N)CC3)cc(Cl)c2CC1CNCCC1CN(c2cnc3c(n2)NC(=O)CO3)C(=O)O1 (racemic) [Example 282, 6-[2-Oxo-5-[2-[[rac-1,2-trans-1-amino-6-[(1-aminocyclopropyl)methoxy]-4-chloro-2,3-dihydro-1H-inden-2-yl]methylamino]ethyl]-1,3-oxazolidin-3-yl]-4H-pyrazino[2,3-b][1,4]oxazin-3-one; formic acid]	374	–
Cc1nc(C)c2c(c1C)CC(CNCCC1CN(c3cnc4c(n3)NC(=O)CO4)C(=O)O1)C2 (centres unmarked) [Example 269, 6-[2-Oxo-5-[2-[(1,3,4-trimethyl-6,7-dihydro-5H-cyclopenta[c]pyridin-6-yl)methylamino]ethyl]-1,3-oxazolidin-3-yl]-4H-pyrazino[2,3-b][1,4]oxazin-3-one]	< 97.7	–
Cc1ncc(F)c2c1CC(NCCCc1cn(-c3cnc4c(n3)NC(=O)CO4)c(=O)o1)C2 (centres unmarked) [Example 302, 6-[5-[3-[(4-Fluoro-1-methyl-6,7-dihydro-5H-cyclopenta[c]pyridin-6-yl)amino]propyl]-2-oxo-1,3-oxazol-3-yl]-4H-pyrazino[2,3-b][1,4]oxazin-3-one; formic acid]	< 97.7	–
O=C1COc2ccc(N3CC(CCNCC4Cc5cncc(F)c5C4)OC3=O)nc2N1 (centres unmarked) [Example 288, 6-[5-[2-[(4-fluoro-6,7-dihydro-5H-cyclopenta[c]pyridin-6-yl)methylamino]ethyl]-2-oxo-1,3-oxazolidin-3-yl]-4H-pyrido[3,2-b][1,4]oxazin-3-one]	< 97.7	–
O=C1COc2ncc(N3CC(CCNCC4Cc5cc(OC6COC6)cc(F)c5C4)OC3=O)nc2N1 (centres unmarked) [Example 323, 6-[5-[2-[[4-fluoro-6-(oxetan-3-yloxy)-2,3-dihydro-1H-inden-2-yl]methylamino]ethyl]-2-oxo-1,3-oxazolidin-3-yl]-4H-pyrazino [2,3-b] [1,4]oxazin-3-one]	250	–
N#Cc1cc(OCc2cnn[nH]2)cc2c1CC(CNCCC1CN(c3cnc4c(n3)NC(=O)CO4)C(=O)O1)C2 (centres unmarked) [Example 425, 2-[[2-[2-Oxo-3-(3-oxo-4H-pyrazino[2,3-b][1,4]oxazin-6-yl)-1,3-oxazolidin-5-yl]ethylamino]methyl]-6-(1N-triazol-5-ylmethoxy)-2,3-dihydro-1H-indene-4-carbonitrile]	102	–
N#Cc1ncc(F)c2c1CC(CNCCC1CN(c3ccc4c(n3)NC(=O)CO4)C(=O)O1)C2 (centres unmarked) [Example 37, 4-fluoro-6-[[2-[2-oxo-3-(3-oxo-4H-pyrido[3,2-b][1,4]oxazin-6-yl)-1,3-oxazolidin-5-yl]ethylamino]methyl]-6,7-dihydro-5H-cyclopenta[c]pyridine-1-carbonitrile; formic acid]	< 97.7	–
NC(=O)COc1cc(F)c2c(c1)CC(CNCCC1CN(c3cnc4c(n3)NC(=O)CO4)C(=O)O1)C2 (centres unmarked) [Example 305, 2-[[7-fluoro-2-[[2-[2-oxo-3-(3-oxo-4H-pyrazino[2,3-b][1,4]oxazin-6-yl)-1,3-oxazolidin-5-yl]ethylamino]methyl]-2,3-dihydro-1H-inden-5-yl]oxy]acetamide]	< 97.7	–
NC1c2ccnc(Cl)c2CC1CNCCC1CN(c2ccc3c(n2)NC(=O)CO3)C(=O)O1 (racemic) [Example 146, 6-[2-oxo-5-[2-[[rac-5,6-cis-5-amino-1-chloro-6,7-dihydro-5H-cyclopenta[c]pyridin-6-yl]methylamino]ethyl]-1,3-oxazolidin-3-yl]-4H-pyrido[3,2-b][1,4]oxazin-3-one; formic acid]	1010	–
Cc1ncc(F)c2c1CC(C(C)NCC[C@@H]1CN(c3cnc4c(n3)NC(=O)CO4)C(=O)O1)C2 (some centres unmarked) [Example 331]	< 97.7	–
CCn1cc(C(=O)O)c(=O)c2ccc3c(c21)CC(CNCCC1CN(c2cnc4c(n2)NC(=O)CO4)C(=O)O1)C3 (centres unmarked) [Example 276, 1-Ethyl-4-oxo-8-[[2-[2-oxo-3-(3-oxo-4H-pyrazino[2,3-b][1,4]oxazin-6-yl)-1,3-oxazolidin-5-yl]ethylamino]methyl]-8,9-dihydro-7H-cyclopenta[h]quinoline-3-carboxylic acid]	635	–
Cc1ncc(Cl)c2c1CC(CNCCC1CN(c3ccc4c(n3)NC(=O)CO4)C(=O)O1)C2 (centres unmarked) [Example 55, 6-[5-[2-[(4-chloro-1-methyl-6,7-dihydro-5H-cyclopenta[c]pyridin-6-yl)methylamino]ethyl]-2-oxo-1,3-oxazolidin-3-yl]-4H-pyrido[3,2-b][1,4]oxazin-3-one; formic acid]	< 97.7	–
Cc1ncnc2c1CC(CNCCC1CN(c3ccc4c(n3)NC(=O)CO4)C(=O)O1)C2 (centres unmarked) [Example 421, 6-[5-[2-[(4-methyl-6,7-dihydro-5H-cyclopenta[d]pyrimidin-6-yl)methylamino]ethyl]-2-oxo-1,3-oxazolidin-3-yl]-4H-pyrido[3,2-b][1,4] oxazin-3-one]	618	–
Cc1ncc(F)c2c1CC(NCCCc1cn(-c3cnc4c(n3)NC(=O)CO4)c(=O)o1)C2 (single isomer, unassigned; enantiomer b) [Example 368, 6-[5-[3-[(4-Fluoro-1-methyl-6,7-dihydro-5H-cyclopenta[c]pyridin-6-yl)amino]propyl]-2-oxo-1,3-oxazol-3-yl]-4H-pyrazino[2,3-b][1,4]oxazin-3-one, Enantiomer B]	–	< 97.7
O=C1COc2ncc(N3CC(CCNCC4Cc5c(F)cnc(-c6cnc[nH]6)c5C4)OC3=O)nc2N1 (centres unmarked) [Example 433, 6-[5-[2-[[4-Fluoro-1-(1H-imidazol-5-yl)-6,7-dihydro-5H-cyclopenta[c]pyridin-6-yl]methylamino]ethyl]-2-oxo-1,3-oxazolidin-3-yl]-4H-pyrazino[2,3-b][1,4]oxazin-3-one]	< 97.7	–
CNC(=O)COc1ccc2c(c1F)CC(CN1CCC3(CC1)CN(c1cnc4c(n1)NC(=O)CO4)C(=O)O3)C2 (centres unmarked) [Example 336, 2-[[4-fluoro-2-[[2-oxo-3-(3-oxo-4H-pyrazino[2,3-b][1,4]oxazin-6-yl)-1-oxa-3,8-diazaspiro[4.5]decan-8-yl]methyl]-2,3-dihydro-1H-inden-5-yl]oxy]-N-methylacetamide]	< 97.7	–
O=C1COc2ccc(N3CC([C@H]4C[C@@H](NC5Cc6cccc(Cl)c6C5)C4)OC3=O)nc2N1 (stereo partly drawn) [Example 16, 6-[5-[cis-3-[(4-chloro-2,3-dihydro-1H-inden-2-yl)amino]cyclobutyl]-2-oxo-1,3-oxazolidin-3-yl]-4H-pyrido[3,2-b][1,4]oxazin-3-one; formic acid]	840	–
CC(N)COc1cc(C#N)c2c(c1)CC(CNCCC1CN(c3cnc4c(n3)NC(=O)CO4)C(=O)O1)C2 (centres unmarked) [Example 193, 6-(2-aminopropoxy)-2-(((2-(2-oxo-3-(3-oxo-3,4-dihydro-2H-pyrazine[2,3-b][1,4]oxazin-6-yl)oxazolidin-5-yl)ethyl)amino)methyl)-2,3-dihydro-1H-indene-4-carbonitrile; 2,2,2-trifluoroacetic acid]	< 97.7	–
O=C1COc2ncc(N3CC(CCNCC4Cc5cccc(Cl)c5C4)OC3=O)nc2N1 (centres unmarked) [Example 281, 6-[5-[2-[(4-Chloro-2,3-dihydro-1H-inden-2-yl)methylamino]ethyl]-2-oxo-1,3-oxazolidin-3-yl]-4H-pyrazino[2,3-b][1,4]oxazin-3-one]	< 97.7	–
